Laboratory results published in patent US20120004188A1, “USE OF RANOLAZINE FOR TREATING PULMONARY HYPERTENSION” (Gilead Sciences, Inc., priority 2010, published 2012).
Where two headings read alike, the source gives them in different places.

Assays:
[1] = test system: MCT-induced PAH and RV dysfunction; experiment: Monocrotaline (MCT)-induced chronic PAH and RV dysfunction model in rats; assay type: in vivo, Male Sprague-Dawley rats; conditions: for RV hypertrophy, RV(milligrams)/LV(milligrams) / plasma BNP levels / decrease in RV ejection fraction: day 28; for RV hypertrophy, RV(milligrams)/LV(milligrams): MCT 0.55±0.04; for plasma BNP levels: MCT 590±106, control 170±90; for decrease in RV ejection fraction: MCT −47±7%; for pulmonary systolic pressure: MCT 84±7, control 29±1; for RV systolic pressure: MCT 86±7, control 26±1
Source text: As is discussed in detail hereinabove, ranolazine is an anti-anginal drug that inhibits the late sodium current (INa) in cardiomyocytes. Late INa is increased during conditions of ischemia and hypoxia, and causes intracellular Ca^2+ overload by increasing the amount of intracellular Na^+ available for exchange via the Na^+—Ca^2+ exchanger (NCX). […] Monocrotaline or MCT (a poisonous crystalline alkaloid found in a leguminous plant of the genus Crotalaria) induces progressive pulmonary arterial hypertension (PAH) in rats that results in RV hypertrophy, contractile dysfunction, and eventually RV failure. Both human PAH and MCT-induced PAH models are characterized by hypoxia and increased ROS production but the role of late INa in this model has not been investigated. Therefore, the present example evaluates the efficacy of RAN to prevent MCT-induced PAH and RV dysfunction. Male Sprague-Dawley rats were given a single injection of MCT (60 milligrams per kilogram, s.c.) at study inception and randomized into three groups; MCT, low dose RAN (0.25% weight of RAN over weight of chow), and high dose (0.5% weight of RAN over weight of chow) RAN. RAN was given in diet for 28 days mixed in standard rodent chow containing 0.25% or 0.5% RAN for low and high doses, respectively. These concentrations of RAN yielded plasma concentrations of 1-2 micromolar and 5-7 micromolar, respectively. A control group received a sub-cutaneous (s.c.) saline injection and was fed standard rodent chow. Pulmonary hemodynamics, RV function, and RV hypertrophy was assessed at endpoint (day 28 following MCT administration). Alpha-smooth muscle actin (α-SMA) staining on lung tissue sections were carried out to assess pulmonary vascular remodeling at day 28 as well.

[2] = Plasma concentration of RAN given in diet to rats; assay type: in vivo; conditions: male, Sprague-Dawley, oral, rat, read-out: plasma concentrations
Source text: Male Sprague-Dawley rats were given a single injection of MCT (60 milligrams per kilogram, s.c.) at study inception and randomized into three groups; MCT, low dose RAN (0.25% weight of RAN over weight of chow), and high dose (0.5% weight of RAN over weight of chow) RAN. RAN was given in diet for 28 days mixed in standard rodent chow containing 0.25% or 0.5% RAN for low and high doses, respectively. These concentrations of RAN yielded plasma concentrations of 1-2 micromolar and 5-7 micromolar, respectively. A control group received a sub-cutaneous (s.c.) saline injection and was fed standard rodent chow. Pulmonary hemodynamics, RV function, and RV hypertrophy was assessed at endpoint (day 28 following MCT administration). Alpha-smooth muscle actin (α-SMA) staining on lung tissue sections were carried out to assess pulmonary vascular remodeling at day 28 as well.

[3] = test system: right ventricular remodeling following acute myocardial infarction; experiment: Murine model of large anterior wall acute myocardial infarction (permanent ligation of the left coronary artery); assay type: in vivo, Male Imprinting Control Region (ICR) mice; conditions: 30 mg/kg i.p. every 6 hours for 7 days
Description: Male Imprinting Control Region (ICR) mice underwent permanent coronary artery ligation of the left coronary artery and treated with vehicle (saline) or ranolazine 30 mg/kg i.p. every 6 hours (N=10-12 per group) for 7 days starting at the time of ligation. Infarct size was measured early using Masson's trichrome staining. Transthoracic echocardiography was performed prior to surgery and 7 days later to measure left ventricular and right ventricular dimensions and function.

[4] = test system: pulmonary hypertension or PAH; experiment: Right ventricular function, exercise capacity and quality of life in patients with pulmonary hypertension or PAH; assay type: in vivo; conditions: contemplated result
Source text: To ascertain the improvement in right ventricular function in patients suffering from pulmonary hypertension or pulmonary arterial hypertension (PAH), the following parameters are examined: • Exercise capacity and quality of life • RV subendocardial perfusion using adenosine cardiac MRI studies • Exercise-induced changes in RV function determined non-invasively using comprehensive Doppler and tissue Doppler echocardiography along with determination of right ventricular—pulmonary vascular coupling and pulmonary vascular impedance spectra • RV contractility and comprehensive pressure-volume analysis using invasive hemodynamics, 2D and 3D echocardiography, and cardiac MRI Note that the aforementioned endpoints use a combination of invasive and non-invasive techniques. Echocardiography techniques are best suited for exercise studies. Echocardiographic RV volume data can be normalized to MRI RV volume data, and echocardiographic estimation of RV pressures can be normalized to invasive RV pressure data, thereby increasing the accuracy of echocardiographic analysis of RV structure and function.

[5] = high dose RAN (0.5% in chow), day 28 after MCT
[6] = echocardiography at day 7, versus vehicle-treated mice

concentration at 28 days ([2]; 0.25 % weight of RAN over weight of chow, low dose RAN, 0.25% in chow): 1 to 2 µM
concentration at 28 days ([2]; 0.5 % weight of RAN over weight of chow, high dose RAN, 0.5% in chow): 5 to 7 µM
Structure (SMILES): COc1ccccc1OCC(O)CN1CCN(CC(=O)Nc2c(C)cccc2C)CC1 (racemic) [ranolazine, ±-N-(2,6-dimethylphenyl)-4-[2-hydroxy-3-(2-methoxyphenoxy)-propyl]-1-piperazineacetamide]
MCT induced changes (PAH and RV dysfunction), overall ([1]; 0.25% and 0.5% RAN in chow, 28 days): significantly and dose-dependently attenuated
RV hypertrophy, RV(milligrams)/LV(milligrams) ([1]; high dose RAN (0.5% in chow)): 0.32±0.03
plasma BNP levels ([1]; high dose RAN (0.5% in chow)): 60±20 picograms/milliliter
decrease in RV ejection fraction ([1]; high dose RAN (0.5% in chow)): −10±8%
pulmonary systolic pressure [1, 5]: 40±4 millimeters Hg
RV systolic pressure [1, 5]: 39±4 millimeters Hg
RV hypertrophy, RV(milligrams)/LV(milligrams) ([1]; low dose RAN (0.25% in chow)): 0.4±0.03
plasma BNP levels ([1]; low dose RAN (0.25% in chow)): 180±30 picograms/milliliter
decrease in RV ejection fraction ([1]; low dose RAN (0.25% in chow)): −17±11%
pulmonary systolic pressure ([1]; low dose RAN (0.25% in chow), day 28 after MCT 60 mg/kg s.c.): 59±5 millimeters Hg
RV systolic pressure ([1]; low dose RAN (0.25% in chow), day 28 after MCT): 58±5 millimeters Hg
pulmonary vascular remodeling in intra-acinar arteries (ratio of vessel wall thickness to lumen diameter) ([1]; α-SMA staining of lung sections, day 28, compared to MCT animals): significantly reduced remodeling
infarct size ([3]; Masson's trichrome staining): absence of any measurable effects
LV function and dimension ([3]; echocardiography at day 7): absence of any measurable effects
RV dimension (RV diastolic and systolic areas) [3, 6]: significant preservation
RV function (TAPSE and RV fractional area change) [3, 6]: significant preservation
exercise capacity and quality of life [4]: improve exercise capacity and quality of life
pain associated with pulmonary hypertension or PAH [4]: ameliorates pain
